Columns and labels:
[1] = target: T1, uric acid-xanthine/H+ symporter (UapA) (Emericella nidulans, UniProt Q07307, G411V); experiment: thermal stability of UapA by CPM analysis; set-up: species or system Aspergillus nidulans; settings: CMC+0.04 wt % and CMC+0.2 wt %, 40° C., 120 minutes
T1 construct: GFP; made in house; host or cells: Saccharomyces cerevisiae FGY217
Method: The ability of TPSs (TPS-As, TPS-Es and TPS-ELs) to stabilize the structure of uric acid-xanthine/H+ symporter (UapA) isolated from Aspergillus nidulans was measured. The structural stability of UapA was evaluated using a sulfhydryl-specific fluorophore, N-[4-(7-diethylamino-4-methyl-3-coumarinyl)phenyl]maleimide (CPM).
Specifically, UapAG411V1-11 (hereinafter, referred to as ‘UapA’) was expressed in a Saccharomyces cerevisiae FGY217 strain as a GFP fusion protein, and was isolated using a sample buffer (20 mM Tris (pH 7.5), 150 mM NaCl, 0.03% DDM, 1 mM xanthine). The transporter was concentrated to about 10 mg/mL using a 100 kDa molecular weight cut-off filter (Millipore). The transporter was diluted with a CMC+0.04 wt % or CMC+0.2 wt % buffer at a ratio of 1:150 in a Greiner 96-well plate containing one of TPS-As (TPS-A6, TPS-A7 or TPS-A8), TPS-Es (TPS-E6, TPS-E7 or TPS-E8), TPS-ELs (TPS-E8L, TPS-E9L, TPS-E10L or TPS-E11L), MNG-3 or DDM (control group). […] During incubation, fluorescence emission intensity was monitored using a microplate spectrophotometer set at excitation and emission wavelengths of 387 and 463 nm, respectively. The maximum value of fluorescence intensity was used to calculate the relative percentage of folded transporters during the incubation period. […]

[2] = test system: T4L-β2AR-Gs or β2AR-Gs complexes; settings: purified by DDM, 4° C., reported in the prior art; cited from earlier work
[3] = test system: T4L-β2AR-Gs or β2AR-Gs complexes; experiment: purification and stability of T4L-β2AR-Gs or β2AR-Gs complexes (analytical gel filtration, negative staining EM); set-up: species or system human
Method: The ability of PSE-C11 or TPS-E10L to purify and stabilize T4L-β2AR-Gs or β2AR-Gs complexes was measured using electron microscopy (EM) analysis.
Specifically, measurement of the ability of PSE-C11 for TPS-E10L to purify and stabilize T4L-β2AR-Gs or β2AR-Gs complexes was performed as follows. 100 μM T4L-β2AR solubilized in 0.1 wt % DDM was mixed with 120 μM Gs heterotrimers for 30 minutes. 0.5 units of apyrase (NEB) and 2 mM MgCl2 were added to the mixture, followed by a 1-hour incubation to form complexes. 1 wt % PSE-C11 or TPS-E10L was respectively added to the mixture to achieve a final concentration of 0.8%, and incubated for 30 minutes to allow DDM to be exchanged with PSE-C11 or TPS-E10L. […] Finally, proteins were eluted with a 0.05% (100×CMC) PSE-C11 or TPS-E10L buffer. Gel filtration was performed using a running buffer (20 mM HEPES (pH 7.5), 100 mM NaCl, 0.005% PSE-C11 or TPS-E10L, 1 μM BI, 100 μM TCEP) to purify T4L-β2AR-Gs complexes. To measure the stability of β2AR-Gs complexes present in PSE-C11 or TPS-E10L, analytical gel filtration was performed with running buffers of the same formulation at 12 hours, 1 day, 3 days, 7 days, and 15 days. After a 15 day-incubation, analytical gel filtration was performed using an amphiphilic compound pre-buffer having the same formulation as above without PSE-C11 or TPS-E10L.
In addition, negative staining EM analysis for T4L-β2AR-Gs or β2AR-Gs complexes present in PSE-C11 was performed as follows. Samples containing T4L-β2AR-Gs or β2AR-Gs were prepared to perform electron microscopy analysis using a conventional negative staining protocol (see Peisley, A. et al., G Protein-Coupled Receptors in Drug Discovery: Methods and Protocols, Methods in Molecular Biology, 1335, 29-38 (2015)), and imaging was performed by operating a Tecnai T12 electron microscope at 120 kV at room temperature. Images were recorded with a Gatan US4000 CCD camera at a 71,138×magnification with a defocus value of ˜[…].

T1 sequence (Q07307 12-574 G411V): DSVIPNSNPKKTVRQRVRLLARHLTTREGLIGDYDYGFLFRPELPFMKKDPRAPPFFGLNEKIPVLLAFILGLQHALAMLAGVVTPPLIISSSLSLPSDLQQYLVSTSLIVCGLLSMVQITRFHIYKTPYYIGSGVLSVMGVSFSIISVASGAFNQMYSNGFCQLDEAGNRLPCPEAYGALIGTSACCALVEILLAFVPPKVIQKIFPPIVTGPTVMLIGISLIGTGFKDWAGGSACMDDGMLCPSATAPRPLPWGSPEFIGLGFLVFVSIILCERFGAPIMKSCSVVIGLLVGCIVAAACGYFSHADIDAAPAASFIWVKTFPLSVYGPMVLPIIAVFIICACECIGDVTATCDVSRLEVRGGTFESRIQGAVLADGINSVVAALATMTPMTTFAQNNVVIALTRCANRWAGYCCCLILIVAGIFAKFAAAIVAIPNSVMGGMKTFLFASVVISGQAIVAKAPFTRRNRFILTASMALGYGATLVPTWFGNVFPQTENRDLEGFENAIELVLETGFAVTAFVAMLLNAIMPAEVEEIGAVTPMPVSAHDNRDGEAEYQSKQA

For `CCCCCCCCOCC(COCCCCCCCC)(COCCCCCCCC)CO[C@@H]1OC(CO[C@@H]2OC(CO)[C@@H](O)C(O)C2O)[C@@H](O[C@@H]2OC(CO)[C@@H](O)C(O)C2O)C(O[C@@H]2OC(CO)[C@@H](O)C(O)C2O)C1O[C@@H]1OC(CO)[C@@H](O)C(O)C1O` (stereo partly shown) [TPS-E8], the “maintaining folding state of UapA (CPM)” value [1] was “the most excellent among TPS-As/Es”.
For `CCCCCCCCCCCCO[C@@H]1O[C@H](CO)[C@@H](O[C@H]2O[C@H](CO)[C@@H](O)[C@H](O)[C@H]2O)[C@H](O)[C@H]1O` [DDM, n-dodecyl-β-D-maltopyranoside, reference compound], the “stability of T4L-β2AR-Gs complexes” value [2] is given as “complex separation was observed even after 2 days of incubation”.
For `CCCCCCCCCCCOCC(COCCCCCCCCCCC)O[C@@H]1OC(CO[C@@H]2OC(CO)[C@@H](O)C(O)C2O)[C@@H](O[C@@H]2OC(CO)[C@@H](O)C(O)C2O)C(O[C@@H]2OC(CO)[C@@H](O)C(O)C2O)C1O[C@@H]1OC(CO)[C@@H](O)C(O)C1O` (stereo partly shown) [PSE-C11], the “stability of β2AR-Gs complexes (analytical gel filtration)” value ([3]; after incubation for 15 and 17 days) was “no separation of the complexes was observed at all” and the stability of complexes ([3]; buffer without the amphipathic compound as eluent) was “completely stable”.

Source: patent US20190169218A1, “AMPHIPATHIC COMPOUND HAVING NOVEL PENTA-SACCHARIDE HYDROPHILIC GROUP AND USE THEREOF” (Industry-University Cooperation Foundation Hanyang …, priority 2016, published 2019)
